Data on 28 compounds can be found in patent US8815918B2, “Imidazo [2, 1-B] [1, 3, 4] thiadiazole derivatives” (Centro Nacional de Investigaciones Oncologicas (CNIO), priority 2009, dated 2014).

The assay deals with PI3K (p110α/p85α) (Homo sapiens (Human), UniProt P42336). In words: PI3K Activity Assay (ADP Hunter Plus). It is filed as biochemical. As to conditions: for inhibition at 10 µM: 10 μM compound concentration, read-out: Inhibition (%) of PI3Kα activity, Inh (%) at 10 μM. How it is done: The kinase activity was measured by using the commercial ADP Hunter™ Plus assay available from DiscoveRx (#33-016), which is a homogeneous assay to measure the accumulation of ADP, a universal product of kinase activity. The enzyme, PI3K (p110α/p85α was purchased from Carna Biosciences (#07CBS-0402A). The assay was done following the manufacturer recommendations with slight modifications: Mainly the kinase buffer was replace by 50 mM HEPES, pH 7.5, 3 mM MgCl2, 100 mM NaCl, 1 mM EGTA, 0.04% CHAPS, 2 mM TCEP and 0.01 mg/ml BGG. The PI3K was assayed in a titration experiment to determine the optimal protein concentration for the inhibition assay. To calculate the IC50 of the ETP-compounds, serial 1:5 dilutions of the compounds were added to the enzyme at a fixed concentration (2.5 μg/mL. The enzyme was preincubated with the inhibitor and 30 μM PIP2 substrate (P9763, Sigma) for 5 min and then ATP was added to a final 50 μM concentration. Reaction was carried out for 1 hour at 25° C. Reagent A and B were sequentially added to the wells and plates were incubated for 30 min at 37° C. Fluorescence counts were read in a Victor instrument (Perkin Elmer) with the recommended settings (544 and 580 nm as excitation and emission wavelengths, respectively). Values were normalized against the control activity included for each enzyme (i.e., 100% PI3 kinase activity, without compound). These values were plot against the inhibitor concentration and were fit to a sigmoid dose-response curve by using the Graphad software.

The mark [1] stands for this setting: read-out: Biological activity in PI3Kα, semi-quantitative.

Like-named read-outs stand apart in the source and are kept apart here. Some results are limits rather than exact numbers.

Sequence of PI3K (p110α/p85α) (P42336 whole entry): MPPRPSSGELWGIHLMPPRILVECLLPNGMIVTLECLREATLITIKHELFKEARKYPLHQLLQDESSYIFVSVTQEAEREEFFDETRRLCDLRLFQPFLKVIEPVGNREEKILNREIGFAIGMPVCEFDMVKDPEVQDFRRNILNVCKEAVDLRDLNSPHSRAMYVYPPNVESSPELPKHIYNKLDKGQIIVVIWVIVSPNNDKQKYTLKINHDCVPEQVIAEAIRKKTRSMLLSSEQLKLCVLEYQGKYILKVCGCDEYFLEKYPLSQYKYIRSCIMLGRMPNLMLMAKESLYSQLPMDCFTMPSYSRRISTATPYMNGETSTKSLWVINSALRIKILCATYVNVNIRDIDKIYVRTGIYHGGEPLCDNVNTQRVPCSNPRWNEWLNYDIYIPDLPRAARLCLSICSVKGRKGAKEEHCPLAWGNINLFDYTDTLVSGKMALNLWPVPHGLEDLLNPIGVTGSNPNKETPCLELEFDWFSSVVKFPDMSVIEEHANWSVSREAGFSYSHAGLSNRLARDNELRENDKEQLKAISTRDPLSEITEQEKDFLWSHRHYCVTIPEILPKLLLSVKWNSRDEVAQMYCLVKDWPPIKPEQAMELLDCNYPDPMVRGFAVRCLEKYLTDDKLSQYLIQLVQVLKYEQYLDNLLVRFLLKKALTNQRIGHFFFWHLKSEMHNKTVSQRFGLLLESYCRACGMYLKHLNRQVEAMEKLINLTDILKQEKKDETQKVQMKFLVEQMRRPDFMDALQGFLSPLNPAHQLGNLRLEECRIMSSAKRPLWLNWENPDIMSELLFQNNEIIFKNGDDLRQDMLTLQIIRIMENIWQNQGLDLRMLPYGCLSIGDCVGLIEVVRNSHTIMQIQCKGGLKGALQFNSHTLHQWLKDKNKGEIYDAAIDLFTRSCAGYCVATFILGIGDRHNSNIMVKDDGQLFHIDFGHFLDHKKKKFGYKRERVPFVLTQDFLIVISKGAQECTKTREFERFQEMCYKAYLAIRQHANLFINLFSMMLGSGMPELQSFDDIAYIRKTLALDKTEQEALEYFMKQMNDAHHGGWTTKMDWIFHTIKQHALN
Sequence of PI3K (p110α/p85α) (P27986 whole entry partner): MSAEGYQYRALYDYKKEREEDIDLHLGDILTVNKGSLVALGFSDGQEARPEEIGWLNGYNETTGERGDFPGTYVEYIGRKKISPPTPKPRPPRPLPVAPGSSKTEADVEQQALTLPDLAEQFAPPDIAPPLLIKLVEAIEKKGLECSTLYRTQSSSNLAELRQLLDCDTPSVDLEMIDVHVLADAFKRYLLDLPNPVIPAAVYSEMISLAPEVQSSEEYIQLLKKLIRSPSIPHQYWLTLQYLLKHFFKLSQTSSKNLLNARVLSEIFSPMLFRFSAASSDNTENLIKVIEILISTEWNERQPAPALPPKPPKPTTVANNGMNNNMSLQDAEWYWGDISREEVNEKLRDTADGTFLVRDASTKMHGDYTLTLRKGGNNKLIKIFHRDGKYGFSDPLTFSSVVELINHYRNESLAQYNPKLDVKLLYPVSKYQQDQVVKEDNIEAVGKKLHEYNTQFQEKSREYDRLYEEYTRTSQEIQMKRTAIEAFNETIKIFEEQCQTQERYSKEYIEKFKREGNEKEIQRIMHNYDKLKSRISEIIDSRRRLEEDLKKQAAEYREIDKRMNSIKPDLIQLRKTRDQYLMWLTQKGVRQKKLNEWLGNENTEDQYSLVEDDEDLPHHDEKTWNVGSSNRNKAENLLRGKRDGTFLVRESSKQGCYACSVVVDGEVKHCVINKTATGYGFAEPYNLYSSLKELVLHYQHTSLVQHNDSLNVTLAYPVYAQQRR

One may read the inhibition as the relative decrease from the control value, in per cent. Turning to `COc1ccc(-c2nn3c(-c4ccc(S(C)(=O)=O)c(F)c4)c(C)nc3s2)cc1OC` [Example 1, 2-(3,4-Dimethoxy-phenyl)-5-(3-fluoro-4-methanesulfonyl-phenyl) -6-methyl-imidazo[2,1-b][1,3,4]thiadiazole], the inhibition at 10 µM was 68%. Besides, the IC50 under setting [1] was 0.1 to 1 µM. As for `COc1ccc(-c2nn3c(-c4ccc(C#N)nc4)c(C)nc3s2)cc1OC` [Example 2, 5-[2-(3,4-Dimethoxy-phenyl)-6-methyl-imidazo[2,1-b][1,3,4]thiadiazol-5-yl]-pyridine-2-carbonitrile], the inhibition at 10 µM was 100%. Also, under setting [1], the IC50 lay in the range of 0.1 to 1 µM. Consider `COc1ccc(-c2nn3c(-c4cnc(N)c(C(F)(F)F)c4)c(C)nc3s2)cc1OC` [Example 3, 5-[2-(3,4-Dimethoxy-phenyl)-6-methyl-imidazo[2,1-b][1,3,4]thiadiazol-5-yl]-3-trifluoromethyl-pyridin-2-ylamine], for which the inhibition at 10 µM worked out at 97%. Besides, the IC50 under setting [1] was under 0.1 µM.

Consider `COc1ccc(-c2nn3c(-c4cccnc4)c(C)nc3s2)cc1OC` [Example 4, 2-(3,4-Dimethoxy-phenyl)-6-methyl-5-pyridin-3-yl-imidazo[2,1-b][1,3,4]thiadiazole], for which the inhibition at 10 µM stood at 81%. For the same compound, the IC50 under setting [1] lay within 1 to 50 µM.

For the compound `COc1ccc(-c2c(C)nc3sc(-c4ccc(OC)c(OC)c4)nn23)cn1` [Example 5, 2-(3,4-Dimethoxy-phenyl)-5-(6-methoxy-pyridin-3-yl)-6-methyl-imidazo[2,1-b][1,3,4]thiadiazole], the inhibition at 10 µM amounted to 70%. The IC50 under setting [1] fell in the range of 1 to 50 µM. Moreover, the IC50 (read-out: IC50 [μM] PI3Kα) came to 2.88 µM.

Take `COc1ccc(-c2nn3c(-c4ccc(OC)c(OC)c4)c(C)nc3s2)cc1OC` [Example 6, 2,5-Bis-(3,4-dimethoxy-phenyl)-6-methyl-imidazo[2,1-b][1,3,4]thiadiazole]: the inhibition at 10 µM is 85%. For the same compound, the IC50 under setting [1] was 0.1 to 1 µM.

Take `COc1ccc(-c2nn3c(-c4cnc(N)nc4)c(C)nc3s2)cc1OC` [Example 7, 5-[2-(3,4-Dimethoxy-phenyl)-6-methyl-imidazo[2,1-b][1,3,4]thiadiazol-5-yl]-pyrimidin-2-ylamine]: the inhibition at 10 µM was 100%. The IC50 under setting [1] lay in the range of 0.1 to 1 µM. `COc1ccc(-c2nn3c(-c4ccc(O)nc4)c(C)nc3s2)cc1OC` [Example 8, 5-[2-(3,4-Dimethoxy-phenyl)-6-methyl-imidazo[2,1-b][1,3,4]thiadiazol-5-yl]-pyridin-2-ol]: the IC50 under setting [1] lay in the range of 1 to 50 µM.

Turning to `COc1cc(-c2nn3c(-c4cnc(N)c(C(F)(F)F)c4)c(C)nc3s2)ccc1OCCNC(=O)OC(C)(C)C` [Example 9, tert-Butyl 2-(4-(5-(6-amino-5-(trifluoromethyl)pyridin-3-yl)-6-methylimidazo-[2,1-b][1,3,4]thiadiazol-2-yl)-2-methoxyphenoxy)ethylcarbamate], the inhibition at 10 µM was 77%. Under setting [1], the IC50 was in the range of 1 to 50 µM.

Turning to `COc1cc(-c2nn3c(-c4cnc(N)c(C(F)(F)F)c4)c(C)nc3s2)ccc1OCC(=O)N(C)C` [Example 10, 2-(4-(5-(6-amino-5-(trifluoromethyl)pyridin-3-yl)-6-methylimidazo[2,1-b][1,3,4]thiadiazol-2-yl)-2-methoxyphenoxy)-N,N-dimethylacetamide], the IC50 under setting [1] is 1 to 50 µM. On to `COc1cc(-c2nn3c(-c4cnc(N)c(C(F)(F)F)c4)c(C)nc3s2)ccc1OCCN1CCOCC1` [Example 11, 5-(2-(4-(2-morpholinoethoxy)-3-methoxyphenyl)-6-methylimidazo[2,1-b][1,3,4]thiadiazol-5-yl)-3-(trifluoromethyl)pyridin-2-amine], for which the inhibition at 10 µM turned out to be 83%. Besides, the IC50 under setting [1] was in the range of 1 to 50 µM. Turning to `COc1cc(-c2nn3c(-c4cnc(N)c(C(F)(F)F)c4)cnc3s2)ccc1OC1CCNCC1` [Example 12, 5-{2-[3-Methoxy-4-(piperidin-4-yloxy)-phenyl]-imidazo[2,1-b][1,3,4]thiadiazol-5-yl}-3-trifluoromethyl-pyridin-2-ylamine], the IC50 under setting [1] is under 0.1 µM.

`COc1ccc(-c2cnc3sc(-c4ccc(OC5CCNCC5)c(OC)c4)nn23)cn1` [Example 13, 2-[3-Methoxy-4-(piperidin-4-yloxy)-phenyl]-5-(6-methoxy-pyridin-3-yl)-imidazo[2,1-b][1,3,4]thiadiazole]: the IC50 under setting [1] is 1 to 50 µM. Still for that read-out and setting: the result for `COc1cc(-c2nn3c(-c4cnc(N)nc4)cnc3s2)ccc1OC1CCN(C(=O)OC(C)(C)C)CC1` [Example 14, 4-{4-[5-(2-Amino-pyrimidin-5-yl)-imidazo[2,1-b][1,3,4]thiadiazol-2-yl]-2-methoxy-phenoxy}-piperidine-1-carboxylic acid tert-butyl ester] reads 1 to 50 µM. As for `COc1cc(-c2nn3c(-c4cnc(N)nc4)cnc3s2)ccc1OC1CCNCC1` [Example 15, 5-{2-[3-Methoxy-4-(piperidin-4-yloxy)-phenyl]-imidazo[2,1-b][1,3,4]thiadiazol-5-yl}-pyrimidin-2-ylamine], the IC50 is, setting by setting: under setting [1], 0.1 to 1 µM; (read-out: IC50 [μM] PI3Kα) 0.115 µM. For `COc1ccc(-c2nn3c(-c4ccc(OC)c(OC)c4)cnc3s2)cc1OC` [Example 16, 2,5-Bis-(3,4-dimethoxy-phenyl)-imidazo[2,1-b][1,3,4]thiadiazole], the inhibition at 10 µM was found to be 97%. Moreover, the IC50 under setting [1] is under 0.1 µM. For the compound `COc1ccc(-c2nn3c(-c4ccc(C#N)nc4)cnc3s2)cc1OC` [Example 17, 5-[2-(3,4-Dimethoxy-phenyl)-imidazo[2,1-b][1,3,4]thiadiazol-5-yl]-pyridine-2-carbonitrile], the inhibition at 10 µM is 95%. For the same compound, the IC50 under setting [1] is under 0.1 µM. Moreover, the IC50 (read-out: IC50 [μM] PI3Kα) worked out at 0.063 µM. `COc1ccc(-c2nn3c(-c4cnc(N)c(C#N)c4)cnc3s2)cc1OC` [Example 18, 2-Amino-5-[2-(3,4-dimethoxy-phenyl)-imidazo[2,1-b][1,3,4]thiadiazol-5-yl]-nicotinonitrile]: the IC50 was under 0.1 µM under setting [1] and 0.033 µM (read-out: IC50 [μM] PI3Kα). As for `COc1ccc(-c2nn3c(-c4cnc(N5CCN(C(=O)OC(C)(C)C)CC5)nc4)cnc3s2)cc1OC` [Example 19, 4-{5-[2-(3,4-Dimethoxy-phenyl)-imidazo[2,1-b][1,3,4]thiadiazol-5-yl]-pyrimidin-2-yl}-piperazine-1-carboxylic acid tert-butyl ester], under setting [1], the IC50 is 1 to 50 µM. For `COc1ccc(-c2nn3c(-c4cnc(N5CCNCC5)nc4)cnc3s2)cc1OC` [Example 20, 2-(3,4-Dimethoxy-phenyl)-5-(2-piperazin-1-yl-pyrimidin-5-yl)-imidazo[2,1-b][1,3,4]thiadiazole], under setting [1], the IC50 was in the range of 0.1 to 1 µM.

On to `COc1ccc(-c2nn3c(-c4cnc(N5CCN(C)CC5)nc4)cnc3s2)cc1OC` [Example 21, 2-(3,4-Dimethoxy-phenyl)-5-[2-(4-methyl-piperazin-1-yl)-pyrimidin-5-yl]-imidazo[2,1-b][1,3,4]thiadiazole], for which the IC50 under setting [1] lay in the range of 0.1 to 1 µM. Take `COc1ccc(-c2nn3c(-c4cnc(N5CCNCC5)c(C(F)(F)F)c4)cnc3s2)cc1OC` [Example 22, 2-(3,4-Dimethoxy-phenyl)-5-(6-piperazin-1-yl-5-trifluoromethyl-pyridin-3-yl)-imidazo[2,1-b][1,3,4]thiadiazole]: the IC50 under setting [1] lay within 0.1 to 1 µM.

In the case of `COc1ccc(-c2nn3c(-c4cnc(N5CCN(C)CC5)c(C(F)(F)F)c4)cnc3s2)cc1OC` [Example 23, 2-(3,4-Dimethoxy-phenyl)-5-[6-(4-methyl-piperazin-1-yl)-5-trifluoromethyl-pyridin-3-yl]-imidazo[2,1-b][1,3,4]thiadiazole], the IC50 is 0.1 to 1 µM under setting [1] and 0.447 µM (read-out: IC50 [μM] PI3Kα). In the case of `COc1ccc(-c2nn3c(-c4cnc(SC)nc4)cnc3s2)cc1OC` [Example 24, 2-(3,4-Dimethoxy-phenyl)-5-(2-methylsulfanyl-pyrimidin-5-yl)-imidazo[2,1-b][1,3,4]thiadiazole], under setting [1], the IC50 is 0.1 to 1 µM. On the same count and under the same terms, the result for `COc1ccc(-c2nn3c(-c4cnc([S+](C)[O-])nc4)cnc3s2)cc1OC` (stereo not drawn) [Example 25, 2-(3,4-Dimethoxy-phenyl)-5-(2-mthanesulfinyl-pyrimidin-5-yl) -imidazo[2,1-b][1,3,4]thiadiazole] reads 0.1 to 1 µM; that for `COc1ccc(-c2nn3c(-c4cnc(NCCN(C)C)nc4)cnc3s2)cc1OC` [Example 26, N′-{5-[2-(3,4-Dimethoxy-phenyl)-imidazo[2,1-b][1,3,4]thiadiazol-5-yl]-pyrimidin-2-yl}-N,N-dimethyl-ethane-1,2-diamine], 0.1 to 1 µM. Turning to `COc1cncc(-c2cnc3sc(-c4ccc(OC)c(OC)c4)nn23)c1` [Example 27, 2-(3,4-dimethoxyphenyl)-5-(5-methoxypyridin-3-yl)imidazo[2,1-b][1,3,4]thiadiazole], the inhibition at 10 µM was found to be 99%. Moreover, the IC50 under setting [1] was under 0.1 µM. Turning to `COc1cccc(-c2nn3c(-c4cnc(N)c(C(F)(F)F)c4)cnc3s2)c1` [Example 28, 5-[2-(3-Methoxy-phenyl)-imidazo[2,1-b][1,3,4]thiadiazol-5-yl]-3-trifluoromethyl-pyridin-2-ylamine], under setting [1], the IC50 is 0.1 to 1 µM.
